Source: the NIST ThermoML archive (doi:10.1016/j.jct.2018.08.034)
Where “and” joins values, the source holds several entries; their conditions need not be identical. Identical values can stand only once. Numbers after ± are expanded uncertainties.

Experiments:
[1] = Crystal
[2] = Molar enthalpy of transition or fusion; conditions: Crystal; DSC

c1ccc2cc3ccccc3cc2c1 [anthracene]
[1]
Conditions | vapor or sublimation pressure
343.29 K | 0.000192 ± 5.2e-05 kPa
343.3 K | 0.000182 ± 5.2e-05 kPa
343.31 K | 0.000197 ± 5.2e-05 kPa
345.76 K | 0.000235 ± 5.3e-05 kPa and 0.00024 ± 5.2e-05 kPa
345.79 K | 0.000247 ± 5.3e-05 kPa
348.21 K | 0.000317 ± 5.3e-05 kPa and 0.000305 ± 5.3e-05 kPa
348.27 K | 0.000297 ± 5.3e-05 kPa
350.75 K | 0.000392 ± 5.4e-05 kPa
350.76 K | 0.000401 ± 5.5e-05 kPa
350.79 K | 0.000384 ± 5.4e-05 kPa
353.04 K | 0.000479 ± 5.5e-05 kPa and 0.000485 ± 5.5e-05 kPa
353.19 K | 0.000498 ± 5.5e-05 kPa
355.68 K | 0.00063 ± 5.6e-05 kPa
355.73 K | 0.000626 ± 5.6e-05 kPa
355.74 K | 0.000623 ± 5.6e-05 kPa
358.14 K | 0.000799 ± 5.8e-05 kPa
358.15 K | 0.000784 ± 5.9e-05 kPa
358.18 K | 0.000798 ± 5.8e-05 kPa
360.63 K | 0.001 ± 6e-05 kPa
360.66 K | 0.000992 ± 6.1e-05 kPa
360.68 K | 0.000998 ± 6e-05 kPa
362.95 K | 0.00123 ± 6.3e-05 kPa and 0.001232 ± 6.3e-05 kPa
363.13 K | 0.001244 ± 6.3e-05 kPa
365.54 K | 0.00155 ± 6.7e-05 kPa
365.55 K | 0.001551 ± 6.7e-05 kPa
365.56 K | 0.001562 ± 6.7e-05 kPa
367.97 K | 0.001927 ± 7e-05 kPa and 0.001947 ± 7.1e-05 kPa
367.98 K | 0.001941 ± 7.1e-05 kPa
370.43 K | 0.002398 ± 7.6e-05 kPa
370.44 K | 0.002418 ± 7.6e-05 kPa and 0.002409 ± 7.6e-05 kPa
372.85 K | 0.00298 ± 8.3e-05 kPa
372.89 K | 0.002973 ± 8.3e-05 kPa and 0.002978 ± 8.3e-05 kPa

c1ccc2cc3sccc3cc2c1 [naphtho[2,3-b]thiophene]
Conditions | Molar enthalpy of transition or fusion [kcal/mol]
[2] | 5.09 ± 0.117

Conditions | Normal melting temperature [°C]
[1], DTA | 188.6 ± 0.9
